In brackets after ≈: the same amount, converted by molar mass.
Columns and labels:
Type in all cases: cell-based
Ref 1 K. pneumoniae = assay: MIC by microdilution in broth, reference strain Ref 1; set-up: key to Phenotype (R = resistant, S = sensitive): RA signifies resistance to amoxicillin; RC signifies resistance to ceftriaxone; RM signifies resistance to meropenem; RO resistance to oxacillin; SA signifies sensitive to amoxicillin; SC signifies sensitive to ceftriaxone; SM signifies sensitive to meropenem; SO sensitive to oxacillin; conditions: for Phenotype (R = resistant, S = sensitive): KPC-2; for MIC: Klebsiella pneumoniae, KPC-2, microdilution in broth, read-out: Minimum inhibitory concentration (MIC in μg/ml)
Method: (§1) The minimum inhibitory concentration (MIC in μg/ml) was determined by microdilution in broth, a technique very widely used by a person skilled in the art.

Ref 2 K. pneumoniae = assay: MIC by microdilution in broth, reference strain Ref 2; set-up: key to Phenotype (R = resistant, S = sensitive): RA signifies resistance to amoxicillin; RC signifies resistance to ceftriaxone; RM signifies resistance to meropenem; RO resistance to oxacillin; SA signifies sensitive to amoxicillin; SC signifies sensitive to ceftriaxone; SM signifies sensitive to meropenem; SO sensitive to oxacillin; conditions: for MIC: Klebsiella pneumoniae, OXA-48, microdilution in broth, read-out: Minimum inhibitory concentration (MIC in μg/ml); for Phenotype (R = resistant, S = sensitive): OXA-48
Method: as §1

Ref 3 E. coli = assay: MIC by microdilution in broth, reference strain Ref 3; set-up: key to Phenotype (R = resistant, S = sensitive): RA signifies resistance to amoxicillin; RC signifies resistance to ceftriaxone; RM signifies resistance to meropenem; RO resistance to oxacillin; SA signifies sensitive to amoxicillin; SC signifies sensitive to ceftriaxone; SM signifies sensitive to meropenem; SO sensitive to oxacillin; conditions: for MIC: Escherichia coli, TEM-2, microdilution in broth, read-out: Minimum inhibitory concentration (MIC in μg/ml); for Phenotype (R = resistant, S = sensitive): TEM-2
Method: as §1

Ref 4 E. coli = assay: MIC by microdilution in broth, reference strain Ref 4; set-up: key to Phenotype (R = resistant, S = sensitive): RA signifies resistance to amoxicillin; RC signifies resistance to ceftriaxone; RM signifies resistance to meropenem; RO resistance to oxacillin; SA signifies sensitive to amoxicillin; SC signifies sensitive to ceftriaxone; SM signifies sensitive to meropenem; SO sensitive to oxacillin; conditions: for MIC: Escherichia coli, microdilution in broth, read-out: Minimum inhibitory concentration (MIC in μg/ml)
Method: as §1

Ref 5 E. coli = assay: MIC by microdilution in broth, reference strain Ref 5; set-up: key to Phenotype (R = resistant, S = sensitive): RA signifies resistance to amoxicillin; RC signifies resistance to ceftriaxone; RM signifies resistance to meropenem; RO resistance to oxacillin; SA signifies sensitive to amoxicillin; SC signifies sensitive to ceftriaxone; SM signifies sensitive to meropenem; SO sensitive to oxacillin; conditions: CTX-M; for MIC: Escherichia coli, microdilution in broth, read-out: Minimum inhibitory concentration (MIC in μg/ml)
Method: as §1

[1] = tested on: Isolate 1 (Escherichia coli); assay: Resistance characterization on functionalized analysis plate, MALDI-TOF (Example 4); conditions: threshold identification probability ≥90% for at least 3 deposits out of 4, amoxicillin 2, ceftriaxone 24, meropenem 2 μg/ml
Method: (§2) This cassette comprises a gasket so as to be able to dispose the analysis plate on a sponge impregnated to saturation with Muller-Hinton culture medium. The sponge impregnated with a culture medium serves as a support, and it is made of porous material as described in the description.
(§3) A cover was placed on the cassette containing the analysis plate so as to be clipped on the cassette and close the device without touching the top of the drops.
(§4) The analysis cassettes thus prepared were incubated in the stove at 37° C. for 2, 3, 4 or 5 hours.
(§5) At the end of the incubation step, the analysis plates are placed on very absorbent, dry blotting paper, with an absorption capacity of 25 μL·cm^−2, so that the drops present on the analysis plate are aspirated by capillarity through the analysis zones made of porous material.
(§6) 1 μl of HCCA matrix, alpha-cyano 4-hydroxycinnamic acid (VITEK®MS-CHCA, bioMérieux reference 411071) was deposited on the analysis zones, comprising the microorganisms and the antimicrobial agent, and on the calibration zones comprising the calibrant.
(§7) The analysis plate is then dried and analyzed by VITEK®MS as described in example 1.
(§8) The isolates identified in example 1 were diluted to 0.5 McFarland (McF) in Muller-Hinton medium (bioMérieux reference AEB 110699), then diluted again to 1/100° for the Gram-negative bacteria and to 1/10° for the Gram-positive bacteria, always in Muller-Hinton medium.
(§9) Drops of 2 μl of the final dilutions were deposited on the analysis zones of the analysis plates according to the invention as described in example 2. As before, the dilutions of E. coli and of K. pneumoniae were analyzed on the targets with 16 deposits of amoxicillin, 16 deposits of ceftriaxone and 16 deposits of meropenem. The dilutions of Staphylococci were analyzed on the targets with 2 μg/ml of oxacillin.
(§10) The analysis was carried out according to the same procedure as in example 3 with an incubation of 4 h for all the microorganisms. Moreover, the results were interpreted as in example 3, i.e. with a threshold of identification probability greater than or equal to 90% for at least 3 deposits out of 4.

[2] = tested on: Isolate 3 (Escherichia coli); assay: as above; conditions: threshold identification probability ≥90% for at least 3 deposits out of 4, amoxicillin 2, ceftriaxone 24, meropenem 2 μg/ml
Method: as §2, §3, §4, §5, §6, §7, §8, §9, §10

[3] = tested on: Isolate 5 (Escherichia coli); assay: as above; conditions: isolate 5 (E. coli); threshold identification probability ≥90% for at least 3 deposits out of 4; amoxicillin 2, ceftriaxone 24, meropenem 2 μg/ml
Method: as §2, §3, §4, §5, §6, §7, §8, §9, §10

[4] = tested on: Isolate 7 (Klebsiella pneumoniae); assay: as above; conditions: isolate 7 (K. pneumoniae); threshold identification probability ≥90% for at least 3 deposits out of 4; amoxicillin 2, ceftriaxone 24, meropenem 2 μg/ml
Method: as §2, §3, §4, §5, §6, §7, §8, §9, §10

[5] = tested on: Isolate 8 (Klebsiella pneumoniae); assay: as above; conditions: isolate 8 (K. pneumoniae); threshold identification probability ≥90% for at least 3 deposits out of 4; amoxicillin 2, ceftriaxone 24, meropenem 2 μg/ml
Method: as §2, §3, §4, §5, §6, §7, §8, §9, §10

| MIC (Ref 1 K. pneumoniae) | MIC (Ref 2 K. pneumoniae) | MIC (Ref 3 E. coli) | MIC (Ref 4 E. coli) | MIC (Ref 5 E. coli) | SMILES | Phenotype (R = resistant, S = sensitive) (Ref 1 K. pneumoniae) | Phenotype (R = resistant, S = sensitive) (Ref 2 K. pneumoniae) | Phenotype (R = resistant, S = sensitive) (Ref 3 E. coli) | Phenotype (R = resistant, S = sensitive) (Ref 4 E. coli) | Phenotype (R = resistant, S = sensitive) (Ref 5 E. coli) | Isolate characterized as resistant or sensitive to the antibiotic [1] | Isolate characterized as resistant or sensitive to the antibiotic [2] | Isolate characterized as resistant or sensitive to the antibiotic [3] | Isolate characterized as resistant or sensitive to the antibiotic [4] | Isolate characterized as resistant or sensitive to the antibiotic [5] |
| --- | --- | --- | --- | --- | --- | --- | --- | --- | --- | --- | --- | --- | --- | --- | --- |
| 64 µg/mL (≈ 115 µM) | 32 µg/mL (≈ 57.7 µM) | 16 µg/mL (≈ 28.9 µM) | 0.25 µg/mL (≈ 0.451 µM) | 8 µg/mL (≈ 14.4 µM) | CO/N=C(\C(=O)N[C@@H]1C(=O)N2C(C(=O)O)=C(CSc3nc(=O)c(=O)[nH]n3C)CS[C@H]12)c1csc(N)n1 [Ceftriaxone, ceftriaxone] | RC | RC | RC | SC | RC | sensitive | resistant | sensitive | sensitive | resistant |
| 64 µg/mL (≈ 167 µM) | 0.25 µg/mL (≈ 0.652 µM) | 0.5 µg/mL (≈ 1.3 µM) | 0.06 µg/mL (≈ 0.156 µM) | 0.5 µg/mL (≈ 1.3 µM) | C[C@@H](O)[C@H]1C(=O)N2C(C(=O)O)=C(S[C@@H]3CN[C@H](C(=O)N(C)C)C3)[C@H](C)[C@H]12 [Meropenem, meropenem] | RM | SM | SM | SM | SM | sensitive | sensitive | sensitive | sensitive | sensitive |

Reference: patent publication US20240118287A1, “ANALYSIS PLATE FOR A MASS SPECTROMETRY ANALYSIS AND ASSOCIATED METHOD FOR CHARACTERIZING MICROORGANISMS BY MASS SPECTROMETRY” (priority 2021, published 2024)
